Data published in PMC8224802 (Pharmaceutics, 2021).
Where two headings read alike, the source gives them in different places.

How the values were obtained:
[1] = system: microsomal metabolism of RPG (repaglinide); experiment: In vitro inhibition of RPG metabolism by QCT in RLM; type: in vitro ADME, rat; details: rat, rat liver microsomes
Experimental: (§1) The intrinsic metabolic clearance (CLint) was calculated as Vmax/Km. […] The parameter α is indicative of the inhibition type. The mixed model is a general equation that includes competitive, uncompetitive, and noncompetitive inhibition as special cases. When α = 1, the mixed model is identical to a noncompetitive inhibition. When α is very large (α→∞) or very small (α→0), the mixed model becomes identical to competitive inhibition or uncompetitive inhibition, respectively.

[2] = system: microsomal metabolism of RPG in RLM; experiment: as above; type: in vitro ADME, rat
Experimental: as §1

[3] = Plasma protein binding by rapid equilibrium dialysis (human plasma); type: in vitro ADME; details: human, plasma (20-fold diluted); Table S3, in-house; species not printed (clinical prediction); read-out: fu,QCT
Experimental: (§2) A 200 μL spiked samples and 400 μL PBS were placed into the “sample” and “buffer” chambers of the RED device, respectively. After 4-h incubation to equilibrate between the buffer and plasma compartments, the RED plate was sampled from both compartments. The samples were matrix-matched for analysis by addition of either diluted plasma or buffer; (a) blank diluted plasma added to the buffer samples and (b) blank buffer added to the diluted plasma sample, at a ratio of 50:50 v/v. The unbound fractions in microsomes and diluted plasma were determined by dividing the analyte/IS peak area ratios of the (a) sample by those of the (b) sample. The unbound fraction in diluted plasma (fu,d) was converted to the unbound fraction in undiluted plasma (fu) using a Kalvass equation as below (DF: dilution factor). (1) fu=1/DF/[(1/fu,d)−1]+1/DF

[4] = system: microsomal metabolism of RPG (repaglinide); experiment: In vitro inhibition of RPG metabolism by QCT in HLM; type: in vitro ADME, human; details: human, human liver microsomes
Experimental: as §1

[5] = system: microsomal metabolism of RPG in HLM; experiment: as above; type: in vitro ADME, human
Experimental: as §1

[6] = In vivo oral pharmacokinetic study of RPG without or with QCT in rats; set-up: species or system Sprague-Dawley rats; details: rats, oral QCT 100 mg/kg
Experimental: Rats were anesthetized via intramuscular injection of 10 mg/kg zoletil. The femoral vein and artery of the rats were cannulated using a polyethylene tube (BD Medical, Franklin Lakes, NJ, USA). […] The vehicle solutions for the intravenous and oral doses were composed of PEG 400 and aqueous 0.3% CMC solution (50:50 v/v).
For comparison, the extent of absolute oral bioavailability (F; expressed as percent of dose administered) was calculated by dividing the dose-normalized AUC after oral administration by the dose-normalized AUC after intravenous injection. The peak plasma concentration (Cmax) and time to reach Cmax (Tmax) were obtained directly from the measured experimental data.

CYP3A4 = system: CYP3A4; set-up: method as in PMID 28232125; details: read-out: Ki of QCT for CYP3A4 activity; cited from earlier work
[7] = set-up: method as in earlier work; details: Table S3, ref [1] of the supplement (Ganio et al., 2010); cited from earlier work
[8] = Microsomal protein binding by rapid equilibrium dialysis (HLM); details: human, microsomes
Experimental: as §2

[9] = system: in vitro metabolism of RPG in HLM; details: cited from earlier work
[10] = healthy subjects, cited from earlier work
[11] = cited from earlier work
[12] = probe RPG (repaglinide), 1, 3, 10, 30 and 100 μM

With O=c1c(O)c(-c2ccc(O)c(O)c2)oc2cc(O)cc(O)c12 [QCT, Quercetin] the IC50 at 60 min ([1]; probe RPG (repaglinide), 3 μM) was […], the Ki at 60 min [1, 12] was 72 µM and the “Type of inhibition of RPG metabolism by QCT” value ([2]; RLM, Dixon plot and model fit) was “mixed inhibition”. For the same compound, the “Inhibition potency of QCT on hepatic metabolism of RPG in vitro” value ([2]; rats (RLM)) was “weak”, the fraction unbound at 4 h, 5 μM [3] was 0.0462 and the IC50 ([4]; probe RPG (repaglinide), 3 μM, IC50 of QCT on the microsomal metabolism of RPG, HLM 0.5 mg/mL, 3 μM RPG) was 3000 nM. For the same compound, the Ki [4, 12] was 24.2 µM, the Ki ([4]; probe RPG (repaglinide), Table S3, S = 5 μM, read-out: Calculated Ki, (fu,mic,QCT × IC50) / (S / Km + 1)) was 0.534 µM and the “Type of inhibition of RPG metabolism by QCT” value ([5]; HLM, Dixon plot and model fit) was “mixed inhibition”. For the same compound, the IC50 ([5]; Table S3, source Figure 4, read-out: IC50 used for estimation of R) was 1660 nM, the “Inhibition potency of QCT on hepatic metabolism of RPG in vitro” value ([5]; humans (HLM)) was “moderate” and the IC50 ([5]; read-out: IC50 of QCT on the microsomal metabolism of RPG, HLM 0.5 mg/mL, 3 μM RPG) was 3030 ± 1840 nM. For the same compound, the “Classification of QCT as inhibitor of in vivo metabolism and systemic exposure of RPG” value [6] was “weak inhibitor”, the Ki (CYP3A4) was […] and the “Imax,u (maximum unbound plasma concentration of QCT)” value [7] was […]. For the same compound, the fraction unbound at 4 h, 5 μM [8] was 0.381, the “Inhibition of in vitro metabolism of RPG” value ([9]; QCT 25 μM, RPG 0.2 μM) was 58% and the “Effect of QCT on metabolism of RPG in HLM” value ([9]; RPG 0.2 and 2 μM, QCT 25 μM) was “significantly inhibited”. For the same compound, the Ki ([9]; read-out: Ki for the inhibitory effect of QCT on in vitro metabolism of RPG) was 610 nM.

For Cn1c(=O)c2c(ncn2C)n(C)c1=O [caffeine], the “Effect of oral QCT on systemic exposure (AUC and/or Cmax)” value ([10]; QCT 500 mg/day for 14 days) is given as “significantly increased”.

For COC(=O)[C@H](c1ccccc1Cl)N1CCc2sccc2C1 [clopidogrel], the “Increase of systemic exposure to orally administered RPG by CYP2C8 inhibitors” value [11] is listed as 3.1–5.1 fold.

For CCC(C)n1ncn(-c2ccc(N3CCN(c4ccc(OCC5COC(Cn6cncn6)(c6ccc(Cl)cc6Cl)O5)cc4)CC3)cc2)c1=O (stereo not shown) [itraconazole], the “Increase of systemic exposure to orally administered RPG by CYP3A4 inhibitors” value [11] is given as 1.4 fold.

For CN(CCOc1ccc(CC2SC(=O)NC2=O)cc1)c1ccccn1 (stereo not shown) [rosiglitazone], the “Effect of oral QCT on the pharmacokinetics of rosiglitazone” value ([10]; QCT 500 mg/day for 21 days) is listed as “did not significantly change”.

In the case of CC[C@H]1OC(=O)[C@H](C)C(=O)[C@H](C)[C@@H](O[C@@H]2O[C@H](C)C[C@H](N(C)C)[C@H]2O)[C@](C)(OC)C[C@@H](C)C(=O)[C@H](C)[C@H]2N(CCCCn3cnc(-c4cccnc4)c3)C(=O)O[C@]12C [telithromycin], the “Increase of systemic exposure to orally administered RPG by CYP3A4 inhibitors” value [11] is listed as 1.8 fold.

For COc1cc(Cc2cnc(N)nc2N)cc(OC)c1OC [trimethoprim], the “Increase of systemic exposure to orally administered RPG by CYP2C8 inhibitors” value [11] is listed as 1.6–2 fold.
